{"source": "patent US4435391A", "about": "“Dibenzoxazepine derivative, and pharmaceutical composition comprising the same” (Chugai Seiyaku Kabushiki Kaisha, priority 1980, dated 1984)", "key": {"[1]": {"test_system": "platelets (platelet rich plasma)", "assay": "Inhibition of platelet aggregation in platelet rich plasma (Experiment 3)", "assay_type": "cell-based, SD strain rats", "conditions": "Table 3 (own numbering), compound 1×10^-4 M", "description": "Platelet rich plasma samples were prepared from the blood of SD strain rats, and to 0.5 ml of the samples, test compounds in the form of a solution in dimethyl sulfoxide (DMSO) were added in such an amount that the concentration of the compounds in the mixture was 1×10^-4 M. The assay media containing aspirin were used as a control. After incubation for one minute, arachidonic acid, collagen and adenosine diphosphate (ADP) were added to the mixture in concentrations of 1×10^-4 M, 1.5×10^-3 M and 1×10^-6 M, respectively, to aggregate the platelets. The aggregation level was determined with an aggregometer. CORNING-EEL MODEL 16P (Manufactured by Evans Electro Selenium Ltd.) and the percent inhibition of platelets was calculated from the following equation: [formula]"}, "[2]": {"test_system": "cholesterol (TC) level of plasma", "assay": "Plasma cholesterol (TC) in Triton-injected mice (Experiment 2)", "assay_type": "in vivo, mice of ddY strain", "conditions": "Table 2, 150 mg/kg immediately and 8 hours after Triton WR-1399 500 mg/kg i.v., blood drawn 24 h after Triton", "description": "(§1) The mice of ddY strain weighing between 25 and 30 g were fasted overnight and then Triton WR-1399(500 mg/kg) (Ruger Chemicals Co.) was intravenously injected into the mice. Immediately and 8 hours after the injection, each mouse was administered 150 mg/kg of a test compound of this invention as suspended in 1% aqueous methylcellulose.\n(§2) 24 Hours after the injection of Triton, the blood was drawn from the heart. The cholesterol (TC) and triglyuride (TG) levels of plasma were determined with RaBASuper (Chugai Seiyaku K.K., Japan).\n(§3) As a positive control, chlofibrate were used."}, "[3]": {"test_system": "triglyuride (TG) level of plasma", "assay": "Plasma triglyceride (TG) in Triton-injected mice (Experiment 2)", "assay_type": "in vivo, mice of ddY strain", "conditions": "Table 2, 150 mg/kg immediately and 8 hours after Triton WR-1399 500 mg/kg i.v., blood drawn 24 h after Triton", "description": "as §1, §2, §3"}, "[4]": {"test_system": "lipid peroxide level (TBA) of blood", "assay": "Lipid peroxide (TBA) level of blood in alloxan-treated mice (Experiment 1)", "assay_type": "in vivo, male mice of ddY strain", "conditions": "Table 1, 300 mg/kg orally, 22 h after alloxan 75 mg/kg i.v., blood drawn 48 h after alloxan, vs untreated mice", "description": "(§4) Male mice of ddY strain weighing between 25 and 30 g were divided into groups of 10 members each and administered intravenously 75 mg/kg of alloxan. Twenty-two hours later, each mouse was administered orally 300 mg/kg of a test compound of this invention as suspended in 1% gum arabic. […] The lipid peroxide level (TBA) of blood was determined with Lipoperoxide-Test Wako (Wako Pure Chemical Industries, Ltd., Japan). The level of blood sugar (BG) was determined with New Blood Sugar Test (Berlinger Mannheim AG., West Germany). […] As a positive control, tocopherol was used."}, "[5]": {"test_system": "level of blood sugar (BG)", "assay": "Blood sugar (BG) level in alloxan-treated mice (Experiment 1)", "assay_type": "in vivo, male mice of ddY strain", "conditions": "Table 1, 300 mg/kg orally, 22 h after alloxan 75 mg/kg i.v., blood drawn 48 h after alloxan, vs untreated mice", "description": "as §4"}}, "data": [{"substance": "ethyl 4-methoxydibenz[b,f][1,4]oxazepine-8-carboxylate [Compound 6 (Table 3)]", "values": [{"measurement": "Percent Inhibition of Aggregation, ADP", "setting": "[1]; aggregation by ADP 1×10^-6 M", "result": 20, "unit": "%"}, {"measurement": "Percent Inhibition of Aggregation, Arachidonic acid", "setting": "[1]; aggregation by arachidonic acid 1×10^-4 M", "result": 40, "unit": "%"}, {"measurement": "Percent Inhibition of Aggregation, Collagen", "setting": "[1]; aggregation by collagen 1.5×10^-3 M", "result": 25, "unit": "%"}, {"measurement": "Percent Reduction TC (x ± S.E.)", "setting": "[2]; listed as 1", "result": 19.3, "unit": "%"}, {"measurement": "Percent Reduction TC (x ± S.E.)", "setting": "[2]; listed as 2", "result": 21.4, "unit": "%"}, {"measurement": "Percent Reduction TG (x ± S.E.)", "setting": "[3]; listed as 1", "result": 20.8, "unit": "%"}, {"measurement": "Percent Reduction TG (x ± S.E.)", "setting": "[3]; listed as 2", "result": 23.5, "unit": "%"}, {"measurement": "Percent Reduction TBA (x ± S.E.)", "setting": "[4]; listed as 1", "result": 12.3, "unit": "%"}, {"measurement": "Percent Reduction TBA (x ± S.E.)", "setting": "[4]; listed as 2", "result": 25.5, "unit": "%"}, {"measurement": "Percent Reduction BG (x ± S.E.)", "setting": "[5]; listed as 1", "result": 15.5, "unit": "%"}, {"measurement": "Percent Reduction BG (x ± S.E.)", "setting": "[5]; listed as 2", "result": 22.4, "unit": "%"}]}]}
